These molecules were tested against T1, Rabbit Liver Esterase (E.C. 3.1.1.1) (Oryctolagus cuniculus, UniProt P12337) (assay: Inhibition constants, esterase hydrolysis of o-nitrophenyl butyrate followed spectrophotometrically). Settings: RLE; 50 mM Tris pH=8.0; enzyme and inhibitor incubated at ambient temperature for 20 minutes.
T1 construct: from tissue; host or cells: rabbit liver
Type: biochemical
Method: Inhibition constants were measured in 50 mM Tris pH=8.0. Enzyme and inhibitor were incubated at ambient temperature for 20 minutes. Substrate for the enzyme was then added and the rate of hydrolysis was followed spectrophotometrically. The substrate for PLE and RLE was o-nitro-phenylbutrate and for AChE was acetyl thiocholine and Ellman's reagent.

T1 sequence (P12337 19-565): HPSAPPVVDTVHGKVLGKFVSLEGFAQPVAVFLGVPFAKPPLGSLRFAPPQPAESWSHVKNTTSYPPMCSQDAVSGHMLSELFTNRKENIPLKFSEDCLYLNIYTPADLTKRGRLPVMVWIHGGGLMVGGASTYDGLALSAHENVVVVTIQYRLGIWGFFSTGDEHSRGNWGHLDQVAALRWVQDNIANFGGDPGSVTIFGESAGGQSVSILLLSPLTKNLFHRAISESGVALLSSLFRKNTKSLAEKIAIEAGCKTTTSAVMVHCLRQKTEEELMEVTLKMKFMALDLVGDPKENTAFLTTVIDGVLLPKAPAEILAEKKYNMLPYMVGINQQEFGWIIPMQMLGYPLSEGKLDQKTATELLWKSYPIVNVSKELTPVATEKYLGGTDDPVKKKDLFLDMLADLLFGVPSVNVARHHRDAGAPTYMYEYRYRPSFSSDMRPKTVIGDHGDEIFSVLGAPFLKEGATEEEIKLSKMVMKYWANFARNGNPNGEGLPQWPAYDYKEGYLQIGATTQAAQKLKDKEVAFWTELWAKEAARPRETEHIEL

Row | SMILES | Ki [nM]
1 | O=C(CCc1ccc(O)cc1)C(F)(F)C(F)(F)F [1,1,1,2,2-pentafluoro-5-(4-hydroxyphenyl)-3-pentanone] | 800
2 | O=C(Cc1ccc(O)cc1)C(F)(F)F [1,1,1-trifluoro-3-(4-hydroxyphenyl)propanone] | 2000
3 | O=C(CCc1cccc(O)c1)C(F)(F)F [1,1,1-trifluoro-4-(3-hydroxyphenyl)-2-butanone] | 100
4 | O=C(CCc1ccc(O)cc1)C(F)(F)F [1,1,1-trifluoro-4-(4-hydroxyphenyl)-2-butanone] | 20
5 | O=C(CCCc1cccc(O)c1)C(F)(F)F [1,1,1-trifluoro-5-(3-hydroxyphenyl)-2-pentanone] | 170
6 | O=C(CCCc1ccc(O)cc1)C(F)(F)F [1,1,1-trifluoro-5-(4-hydroxyphenyl)-2-pentanone] | 10
7 | O=C(CCCCc1ccc(O)cc1)C(F)(F)F [1,1,1-trifluoro-6-(4-hydroxyphenyl)-2-hexanone] | 20

From US5188937A, “Layered sandwich assay method for chlamydia and materials therefor” (Becton, Dickinson and Company, priority 1991, dated 1993)
